Results published in ChEMBL document CHEMBL1201862, “PubChem BioAssay data set” (2004).
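Interpolation was linear, between the two tested concentrations surrounding the appropriate level; five concentrations were tested over 48 hours in 96-well plates. GI50: concentration for 50% inhibition of growth.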 Calls of active or inactive are those of the source. No stated cut-off is given here; in the data, active = GI50 up to about 1.1 µM and inactive = higher.

Legend:
Experiment in all cases: NCI anticancer screen, dose series, 48 h
786-0 = tested on: 786-0
A498 = tested on: A498
A549 = tested on: A549
CAKI-1 = tested on: CAKI-1
CCRF-CEM = tested on: CCRF-CEM
COLO 205 = tested on: COLO 205
DLD-1 = tested on: DLD-1
DMS-114 = tested on: DMS-114
DMS-273 = tested on: DMS-273
EKVX = tested on: EKVX
HCT-116 = tested on: HCT-116
HCT-15 = tested on: HCT-15
HL-60 = tested on: HL-60
HOP-62 = tested on: HOP-62
HOP-92 = tested on: HOP-92
HT-29 = tested on: HT-29
IGROV-1 = tested on: IGROV-1
K562 = tested on: K562
KM-20L2 = tested on: KM-20L2
KM12 = tested on: KM12
LOX IMVI = tested on: LOX IMVI
LXFL 529 = tested on: LXFL 529
M14 = tested on: M14
M19-MEL = tested on: M19-MEL
MOLT-4 = tested on: MOLT-4
Malme-3M = tested on: Malme-3M
NCI-H226 = tested on: NCI-H226
NCI-H23 = tested on: NCI-H23
NCI-H460 = tested on: NCI-H460
NCI-H522 = tested on: NCI-H522
OVCAR-3 = tested on: OVCAR-3
OVCAR-4 = tested on: OVCAR-4
OVCAR-5 = tested on: OVCAR-5
OVCAR-8 = tested on: OVCAR-8
RPMI-8226 = tested on: RPMI-8226
RXF 393 = tested on: RXF 393
RXF 631 = tested on: RXF 631
SF-268 = tested on: SF-268
SF-295 = tested on: SF-295
SF-539 = tested on: SF-539
SK-MEL-5 = tested on: SK-MEL-5
SK-OV-3 = tested on: SK-OV-3
SN12C = tested on: SN12C
SNB-19 = tested on: SNB-19
SNB-75 = tested on: SNB-75
SNB-78 = tested on: SNB-78
SR = tested on: SR
SW-620 = tested on: SW-620
TK-10 = tested on: TK-10
U-251 = tested on: U-251
UACC-257 = tested on: UACC-257
UACC-62 = tested on: UACC-62
UO-31 = tested on: UO-31
XF498 = tested on: XF498
ACHN = tested on: ACHN
HCC 2998 = tested on: HCC 2998
SK-MEL-28 = tested on: SK-MEL-28
SK-MEL-2 = tested on: SK-MEL-2

Measured: GI50

COc1cc2c3c(c1OC)-c1c(ccc4c1OCO4)CC3(C#N)N(C(=O)c1ccccc1)CC2 (stereo unspecified)
inactive: 786-0 30.7 µM | A498 > 100 µM | A549 64.3 µM | CAKI-1 36.6 µM | CCRF-CEM 51.3 µM | COLO 205 > 100 µM | DLD-1 52.2 µM | DMS-114 45.5 µM | DMS-273 49.7 µM | EKVX 74.1 µM | HCT-116 42.2 µM | HL-60 > 100 µM | HOP-62 38.5 µM | HOP-92 26.4 µM | HT-29 > 100 µM | IGROV-1 > 100 µM | K562 54.6 µM | KM-20L2 > 100 µM | KM12 > 100 µM | LOX IMVI 43 µM | LXFL 529 73.8 µM | M14 > 100 µM | M19-MEL 67.6 µM | MOLT-4 > 100 µM | Malme-3M 51.2 µM | NCI-H226 37.7 µM | NCI-H23 52.8 µM | NCI-H460 98.9 µM | NCI-H522 > 100 µM | OVCAR-3 45.3 µM | OVCAR-4 21 µM | OVCAR-5 > 100 µM | OVCAR-8 44.5 µM | RPMI-8226 8.91 µM | RXF 393 36.1 µM | RXF 631 49.4 µM | SF-268 43.2 µM | SF-295 41.4 µM | SF-539 28.1 µM | SK-MEL-5 > 100 µM | SK-OV-3 50.5 µM | SN12C 51.2 µM | SNB-19 61.5 µM | SNB-75 21.2 µM | SNB-78 66.4 µM | SR > 100 µM | SW-620 > 100 µM | TK-10 > 100 µM | U-251 36.4 µM | UACC-257 57.7 µM | UACC-62 42 µM | UO-31 99.8 µM | XF498 23 µM
39.7 µM: HCT-15

O=C(/C=C/c1cccc([N+](=O)[O-])c1)c1ccc([N+](=O)[O-])cc1
inactive: 786-0 > 100 µM | A498 > 100 µM | A549 > 100 µM | ACHN > 100 µM | CAKI-1 > 100 µM | CCRF-CEM > 100 µM | COLO 205 > 100 µM | DLD-1 > 100 µM | DMS-273 > 100 µM | EKVX > 100 µM | HCC 2998 > 100 µM | HCT-116 > 100 µM | HL-60 > 100 µM | HOP-62 > 100 µM | HT-29 > 100 µM | IGROV-1 > 100 µM | K562 > 100 µM | KM-20L2 > 100 µM | KM12 > 100 µM | LOX IMVI > 100 µM | LXFL 529 > 100 µM | M14 > 100 µM | M19-MEL > 100 µM | MOLT-4 > 100 µM | Malme-3M > 100 µM | NCI-H226 > 100 µM | NCI-H23 > 100 µM | NCI-H460 > 100 µM | NCI-H522 > 100 µM | OVCAR-3 > 100 µM | OVCAR-4 > 100 µM | OVCAR-5 > 100 µM | OVCAR-8 > 100 µM | RXF 393 > 100 µM | RXF 631 > 100 µM | SF-268 > 100 µM | SF-295 > 100 µM | SF-539 > 100 µM | SK-MEL-28 > 100 µM | SK-MEL-2 > 100 µM | SK-MEL-5 > 100 µM | SK-OV-3 > 100 µM | SN12C > 100 µM | SNB-19 > 100 µM | SNB-75 > 100 µM | SNB-78 > 100 µM | SR > 100 µM | SW-620 > 100 µM | TK-10 > 100 µM | U-251 > 100 µM | UACC-257 > 100 µM | UACC-62 > 100 µM | UO-31 > 100 µM | XF498 > 100 µM
> 100 µM: HCT-15

Nc1nnc2nc(CC(=O)/C=C/c3ccccc3)c(=O)[nH]n12
inactive: 786-0 > 100 µM | A498 > 100 µM | A549 > 100 µM | ACHN > 100 µM | CAKI-1 > 100 µM | CCRF-CEM > 100 µM | COLO 205 > 100 µM | DLD-1 > 100 µM | DMS-114 > 100 µM | DMS-273 > 100 µM | EKVX > 100 µM | HCC 2998 > 100 µM | HCT-116 > 100 µM | HL-60 > 100 µM | HOP-62 > 100 µM | HOP-92 > 100 µM | HT-29 > 100 µM | IGROV-1 > 100 µM | K562 > 100 µM | KM-20L2 > 100 µM | KM12 > 100 µM | LOX IMVI > 100 µM | LXFL 529 > 100 µM | M14 > 100 µM | M19-MEL > 100 µM | MOLT-4 > 100 µM | Malme-3M > 100 µM | NCI-H226 > 100 µM | NCI-H23 > 100 µM | NCI-H460 > 100 µM | NCI-H522 > 100 µM | OVCAR-3 > 100 µM | OVCAR-4 > 100 µM | OVCAR-5 > 100 µM | OVCAR-8 > 100 µM | RPMI-8226 > 100 µM | RXF 393 > 100 µM | RXF 631 > 100 µM | SF-268 > 100 µM | SF-295 > 100 µM | SF-539 > 100 µM | SK-MEL-28 > 100 µM | SK-MEL-2 > 100 µM | SK-MEL-5 > 100 µM | SK-OV-3 > 100 µM | SN12C > 100 µM | SNB-19 > 100 µM | SNB-75 > 100 µM | SNB-78 > 100 µM | SW-620 > 100 µM | TK-10 > 100 µM | U-251 > 100 µM | UACC-257 > 100 µM | UACC-62 > 100 µM | UO-31 > 100 µM | XF498 > 100 µM
> 100 µM: HCT-15
